As a reminder, the inhibition is the relative decrease from the control value, in per cent. Usually MIC stands for the lowest concentration found to suppress growth. In general, IC50 refers to the concentration at which inhibition is half-maximal.

Drawing on patent US9828379B2 (priority 2013, dated 2017), this text covers inhibition, MIC and IC50 for four molecules.

The target in test [1] is T1, FAAH (Mus musculus, UniProt O08914).
T1 sequence (O08914 1-579): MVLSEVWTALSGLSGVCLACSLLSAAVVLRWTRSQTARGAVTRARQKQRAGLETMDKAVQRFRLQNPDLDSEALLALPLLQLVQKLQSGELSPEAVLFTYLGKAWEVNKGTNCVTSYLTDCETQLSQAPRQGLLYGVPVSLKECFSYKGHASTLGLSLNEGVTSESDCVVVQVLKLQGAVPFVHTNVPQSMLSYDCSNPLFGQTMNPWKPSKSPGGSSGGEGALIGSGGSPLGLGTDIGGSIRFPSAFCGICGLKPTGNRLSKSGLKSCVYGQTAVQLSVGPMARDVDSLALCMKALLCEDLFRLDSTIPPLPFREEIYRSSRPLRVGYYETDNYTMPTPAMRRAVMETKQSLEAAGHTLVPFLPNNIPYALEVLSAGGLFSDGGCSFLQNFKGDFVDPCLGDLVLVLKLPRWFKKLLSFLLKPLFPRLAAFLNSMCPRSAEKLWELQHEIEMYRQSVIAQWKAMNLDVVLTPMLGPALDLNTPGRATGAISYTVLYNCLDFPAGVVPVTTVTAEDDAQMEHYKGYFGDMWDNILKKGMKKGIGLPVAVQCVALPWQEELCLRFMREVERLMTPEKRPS
The experiment in a line: In vitro competitive activity-based protein profiling (Table 2, % inhibition at 1 μM). The class given is biochemical. As to conditions: read-out: % Inhibition at 1 μM FAAH.

The target of test [2] is T2, ABHD6 (Mus musculus, UniProt Q8R2Y0).
T2 sequence (Q8R2Y0 1-336): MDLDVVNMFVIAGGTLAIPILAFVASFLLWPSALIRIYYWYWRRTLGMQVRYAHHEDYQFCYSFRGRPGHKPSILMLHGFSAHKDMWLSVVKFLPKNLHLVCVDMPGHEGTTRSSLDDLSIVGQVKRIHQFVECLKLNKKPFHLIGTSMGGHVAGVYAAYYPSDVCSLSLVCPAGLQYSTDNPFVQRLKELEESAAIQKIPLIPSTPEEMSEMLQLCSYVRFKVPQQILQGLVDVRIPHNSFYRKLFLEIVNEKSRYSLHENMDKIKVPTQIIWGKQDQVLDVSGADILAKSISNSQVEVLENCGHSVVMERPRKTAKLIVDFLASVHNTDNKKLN
The test is described as above. The class given is biochemical. As to conditions: read-out: % Inhibition at 1 μM ABHD6.

The target of test [3] is T3, MAGL (Mus musculus, UniProt O35678).
T3 sequence (O35678 1-303): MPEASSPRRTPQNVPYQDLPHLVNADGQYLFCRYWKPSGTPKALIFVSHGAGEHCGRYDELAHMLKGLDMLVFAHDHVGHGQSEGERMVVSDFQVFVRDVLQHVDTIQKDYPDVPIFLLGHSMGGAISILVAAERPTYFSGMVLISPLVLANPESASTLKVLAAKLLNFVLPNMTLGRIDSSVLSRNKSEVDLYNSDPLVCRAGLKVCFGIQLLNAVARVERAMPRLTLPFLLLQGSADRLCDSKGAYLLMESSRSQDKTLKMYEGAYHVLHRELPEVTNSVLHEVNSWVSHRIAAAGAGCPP
Described as above. The class given is biochemical. As to conditions: read-out: % Inhibition at 1 μM MAGL. The method, then:
After 30 min, FP—Rh (1.0 μL, 50 μM in DMSO) was added and the mixture was incubated for another 30 min at 37° C. Reactions were quenched with SDS loading buffer (50 μL-4×) and run on SDS-PAGE.
Cell lysates were diluted with mock proteomes for use in competitive ABPP experiments.

Test [4] has as its system Mycobacterium Tuberculosis (Mtb). The experiment in a line: Microplate Alamar Blue assay (MABA) against Mtb. Format: cell-based. The method, then:
The activity of disclosed compounds against Mtb can be assessed according to a method based on the microplate Alamar Blue® assay (MABA) (Collins and Franzblau, 1997. Microplate alamar blue assay versus BACTEC 460 system for high-throughput screening of compounds against Mycobacterium tuberculosis and Mycobacterium avium. Antimicrobial Agents and Chemotherapy 41, 1004-1009). Briefly, stock solutions of disclosed compounds are prepared and added to, for example, two wells of a microplate. One well is inoculated with broth containing Mtb. The second well receives only media in order to assess background fluorescence. For MICs, serial dilutions are performed in media. Each microplate is incubated for a period of time. After incubation, one control growth is developed with a mixture of Alamar Blue® solution and Tween 80. The plates are then reincubated. Afterwards, if the well turns pink, the dye mixture is placed into all wells and the plates are reincubated for an additional period of time. The mean fluorescence units (FU) of media-only wells are subtracted from all other wells. The results are expressed in terms of % inhibition defined as 1-(test well FU/mean FU of triplicate bacteria-only wells)×100. The MIC is defined as the lowest concentration effecting a reduction in fluorescence of ≧90% relative to bacteria-only controls.
On the technique in general: Resazurin is reduced to fluorescent resorufin, in cell work by metabolically active cells.

The test system of test [5] is Mycobacterium tuberculosis H37Rv (pFCA-luxAB). The experiment in a line: microbe, parasite or virus in culture. The class given is cell-based. As to conditions: read-out: % Inhibition at 100 μM Mtb LORA.
The test system of test [6] is Trypanosoma brucei. Briefly: Alamar Blue assay against Trypanosoma brucei. Format: cell-based. As to conditions: read-out: IC50 T. brucei. An excerpt:
The ability of disclosed compounds to inhibit Trypanosoma brucei (T. brucei) can be assessed using the Alamar Blue® assay (Räz et al., 1997. The Alamar Blue® assay to determine drug sensitivity of African trypanosomes (T.b. rhodesiense and T.b. gambiense) in vitro. Acta Tropica 68, 139-147). Bloodstream form trypanosomes are cultivated in Minimum Essential Medium (MEM). Standard curves can be generated by serially diluting T. brucei in culture medium and measuring fluorescence and absorbance after a period of incubation with Alamar Blue®. A drug sensitivity assay can be performed as described for the LILIT (long incubation low inoculation test) previously described (Brun and Lun, 1994. Drug sensitivity of Chinese Trypanosoma evansi and Trypanosoma equiperdum isolates. Vet. Parasitol. 52, 37-46) with minor modifications. Briefly, bloodstream form trypanosomes can be inoculated into microtiter plates and incubated in the presence of various disclosed compound concentrations for a period of time. Background fluorescence and absorbance of the drug-containing medium are determined for each drug dilution. Wells without drug serve as controls. Alamar Blue® is added after a period of time and fluorescence and colorimetric development is later determined.

Each structure is given as a SMILES string. Values after ≈ are worked out from the molar mass of the structure shown. Some results are limits rather than exact numbers.

Take `O=C(ON1C(=O)CCC1=O)N1CC2CN(Cc3ccc(-c4ccccc4)cc3)CC2C1` (stereo not shown) [Example 84, 2,5-Dioxopyrrolidin-1-yl 5-[(4-phenylphenyl)methyl]-octahydropyrrolo[3,4-c]pyrrole-2-carboxylate]: the inhibition at 1 µM in test [1] was over 75%; in test [2], 25 to 75%; in test [3] it was over 75%. The same molecule returned an MIC in test [4] of 51 to 100 µM (≈ 21.4 to 41.9 µg/mL). For the same molecule, the inhibition at 100 µM in test [5] was over 80%.

As for `CNC(=O)C(OC(=O)N1CC2CN(C(c3ccc(Cl)cc3)c3ccc(Cl)cc3)CC2C1)C(F)(F)F` (stereo not shown) [Example 125, 2,2,2-Trifluoro-1-(methylcarbamoyl)ethyl 5-[bis(4-chlorophenyl)methyl]-octahydropyrrolo[3,4-c]pyrrole-2-carboxylate], the inhibition at 1 µM is under 25% in test [1], under 25% in test [2] and 25 to 75% in test [3]. Also, in test [4], the MIC is at most 50 µM. In test [5], the inhibition at 100 µM is over 80%.

For `O=C(ON1C(=O)CCC1=O)N1CC2CN(Cc3ccc(Cl)cc3N3CCC4(CCOCC4)C3)CC2C1` (stereo not shown) [Example 106, 2,5-Dioxopyrrolidin-1-yl 5-[(4-chloro-2-[8-oxa-2-azaspiro[4.5]decan-2-yl]phenyl)methyl]-octahydropyrrolo[3,4-c]pyrrole-2-carboxylate], the inhibition at 1 µM is under 25% in test [1], under 25% in test [2] and 25 to 75% in test [3]. In addition, the IC50 in test [6] was under 5 µM.

In the case of `O=C(ON1C(=O)CCC1=O)N1CC2CN(C(c3ccc(Cl)cc3)c3ccc(Cl)cc3)CC2C1` (stereo not shown) [Example 83, 2,5-Dioxopyrrolidin-1-yl 5-[bis(4-chlorophenyl)methyl]-octahydropyrrolo[3,4-c]pyrrole-2-carboxylate], the inhibition at 1 µM in test [1] is under 25%; in test [2], under 25%; in test [3] it was 25 to 75%. In addition, in test [4], the MIC was at most 50 µM. Moreover, the inhibition at 100 µM in test [5] was over 80%.
